Experimental data: patent publication US11161837B2, “Benzofuran derivatives for the treatment of hepatitis C” (BRISTOL-MYERS SQUIBB COMPANY, priority 2016, dated 2021)

Tests used:
[1] = biological target: T1, NS5B proteins of HCV genotype 1b (Con1) (Hepatitis C virus genotype 1b, UniProt Q9WMX2); assay: HCV NS5B RdRp enzyme assay; assay type: biochemical; settings: 1b enzyme
T1 construct: Each untagged protein was expressed with an 18 amino acid C-terminal truncation to enhance the solubility; made in house; host or cells: E. coli BL21(DE3), pET21a
T1 sequence (Q9WMX2 2420-2992): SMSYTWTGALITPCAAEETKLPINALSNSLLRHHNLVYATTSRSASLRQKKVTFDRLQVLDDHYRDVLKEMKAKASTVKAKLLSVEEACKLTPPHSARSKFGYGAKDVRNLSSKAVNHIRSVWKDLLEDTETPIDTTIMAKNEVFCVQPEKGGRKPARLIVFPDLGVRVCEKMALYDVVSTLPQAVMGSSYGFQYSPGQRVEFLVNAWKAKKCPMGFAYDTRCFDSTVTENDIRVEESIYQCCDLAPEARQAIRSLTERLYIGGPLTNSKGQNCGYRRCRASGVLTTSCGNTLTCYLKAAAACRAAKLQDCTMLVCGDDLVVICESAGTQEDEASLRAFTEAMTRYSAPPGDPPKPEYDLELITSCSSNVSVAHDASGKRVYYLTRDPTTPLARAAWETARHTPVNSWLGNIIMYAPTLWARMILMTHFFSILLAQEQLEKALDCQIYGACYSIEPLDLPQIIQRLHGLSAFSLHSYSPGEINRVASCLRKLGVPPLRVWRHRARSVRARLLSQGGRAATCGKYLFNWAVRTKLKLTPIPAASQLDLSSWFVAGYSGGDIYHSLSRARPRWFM
Summary of the method: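 Untagged NS5B (C-terminal 18-aa truncation) in an on-bead scintillation-proximity format: poly A template (0.36 nM), biotin-dT12 primer (15 nM), 0.29 μM ³H-UTP, 7 nM enzyme, 20 mM Hepes pH 7.5, 2.5 mM MgCl2. Reactions ran 4–24 h at 30 °C (24 h runs with 24 h enzyme–inhibitor preincubation), stopped with EDTA. IC50 from ten concentrations, four-parameter logistic fit.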

[2] = tested on: genotype 1b (Con-1) HCV replicon in Huh-7 cells; assay: HCV replicon luciferase assay; assay type: cell-based; settings: Hepatitis C virus, Huh-7, 72 h, 1b replicon, Huh-7, Renilla luciferase, 3 days incubation
Summary of the method: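 Huh-7 cells carrying Con-1 genotype 1b replicon with Renilla luciferase reporter seeded onto titrated compound in DMEM, 4% FBS, 0.5% DMSO, 3 days at 37 °C. Luciferase read with EnduRen substrate (7.5 μM final) after ≥1 h; EC50 by four-parameter logistic fit.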

HCV [3] = settings: cited from earlier work
HCV [4] = settings: combination therapy; cited from earlier work

Row | Molecule | IC50 [1] [nM] | EC50 [2] [nM] | hepatic toxicity (HCV [3]; extended dosing of the combination regimens) | HCV RNA levels in patients (HCV [3]; patients, transient as single agent, more robust with interferon and ribavirin) | sustained efficacy, share of patients (HCV [4]) [%]
1 | CNC(=O)c1c(-c2ccc(F)cc2)oc2ccc(-c3cc(C(=O)NC4(c5ncccn5)CC(F)C4)ccc3C)c(F)c12 (stereo not drawn) [Example 16, 4-Fluoro-5-(5-(3-fluoro-1-(pyrimidin-2-yl)cyclobutylcarbamoyl)-2-methylphenyl)-2-(4-fluorophenyl)-N-methylbenzofuran-3-carboxamide] | 30 | 6.62 | – | – | –
2 | CNC(=O)c1c(-c2ccc(F)cc2)oc2ccc(-c3cc(C(=O)NC4(c5ncccn5)CC(F)(F)C4)cc(F)c3C)c(F)c12 [Example 17, 5-(5-((3,3-Difluoro-1-(pyrimidin-2-yl)cyclobutyl)carbamoyl)-3-fluoro-2-methylphenyl)-4-fluoro-2-(4-fluorophenyl)-N-methylbenzofuran-3-carboxamide] | 250 | 10 | – | – | –
3 | CNC(=O)c1c(-c2ccc(F)cc2)oc2ccc(-c3cc(C(=O)NC4(c5ncccn5)CC(F)(F)C4)c(OC)cc3C)c(F)c12 [Example 18, 5-(5-(3,3-Difluoro-1-(pyrimidin-2-yl)cyclobutylcarbamoyl)-4-methoxy-2-methylphenyl)-4-fluoro-2-(4-fluorophenyl)-N-methylbenzofuran-3-carboxamide] | 140 | 10 | – | – | –
4 | CNC(=O)c1c(-c2ccc(F)cc2)oc2ccc(-c3cc(C(=O)NC4(c5ncccn5)CC(F)C4)c(OC)cc3C)c(F)c12 (stereo not drawn) [Example 19, 4-Fluoro-5-(5-(3-fluoro-1-(pyrimidin-2-yl)cyclobutylcarbamoyl)-4-methoxy-2-methylphenyl)-2-(4-fluorophenyl)-N-methylbenzofuran-3-carboxamide] | 120 | 5.26 | – | – | –
5 | CNC(=O)c1c(-c2ccc(F)cc2)oc2ccc(-c3cc(C(=O)NC4(c5ncccn5)CC(F)C4)cc(F)c3C)c(F)c12 (stereo not drawn) [Example 20, 4-Fluoro-5-(3-fluoro-5-(3-fluoro-1-(pyrimidin-2-yl)cyclobutylcarbamoyl)-2-methylphenyl)-2-(4-fluorophenyl)-N-methylbenzofuran-3-carboxamide] | 90 | 6.16 | – | – | –
6 | CCN(c1cc2oc(-c3ccc(F)cc3)c(C(=O)NC)c2cc1-c1cccc(C(=O)NC2(c3ncccn3)CC(F)C2)c1)S(C)(=O)=O (stereo not drawn) [Example 25, 6-(N-ethylmethylsulfonamido)-5-(3-((3-fluoro-1-(pyrimidin-2-yl)cyclobutyl)carbamoyl)phenyl)-2-(4-fluorophenyl)-N-methylbenzofuran-3-carboxamide] | 1.37 | 5.29 | – | – | –
7 | CNC(=O)c1c(-c2ccc(F)cc2)oc2cc(CCC(F)(F)F)c(-c3ccc(F)c(C(=O)NC4(c5ncccn5)CC(OC(F)F)C4)c3)cc12 (stereo not drawn) [Example 42, 5-(3-((3-(Difluoromethoxy)-1-(pyrimidin-2-yl)cyclobutyl)carbamoyl)-4-fluorophenyl)-2-(4-fluorophenyl)-N-methyl-6-(3,3,3-trifluoropropyl)benzofuran-3-carboxamide] | 7.6 | 5.73 | – | – | –
8 | CNC(=O)c1c(-c2ccc(F)cc2)oc2cc(CCC(F)(F)F)c(-c3ccc(OC)c(C(=O)NC4(c5ncccn5)CC(OC(F)F)C4)c3)cc12 (stereo not drawn) [Example 43, 5-(3-((3-(Difluoromethoxy)-1-(pyrimidin-2-yl)cyclobutyl)carbamoyl)-4-methoxyphenyl)-2-(4-fluorophenyl)-N-methyl-6-(3,3,3-trifluoropropyl)benzofuran-3-carboxamide] | 10 | 5.6 | – | – | –
9 | CCCc1cc2oc(-c3ccc(F)cc3)c(C(=O)NC)c2cc1-c1cccc(C(=O)NC2(c3ncccn3)CC(OC(F)(F)F)C2)c1 (stereo not drawn) [Example 44, 2-(4-Fluorophenyl)-N-methyl-6-propyl-5-(3-((1-(pyrimidin-2-yl)-3-(trifluoromethoxy)cyclobutyl)carbamoyl)phenyl)benzofuran-3-carboxamide] | 5.87 | 9.51 | – | – | –
10 | CNC(=O)c1c(-c2ccc(F)cc2)oc2cc(N(CCO)S(C)(=O)=O)c(C3CC3)cc12 [HCV-796] | – | – | hepatic toxicity observed | reduce HCV RNA levels | –
11 | alpha-interferon and ribavirin | – | – | – | – | 40
